From PubChem BioAssay AID248 (DTP/NCI, 2004)
Values joined by “and” are separate entries in the source; they are usually repeats but may differ in a detail not shown here. Equal values may be shown once. Toxic doses and inconclusive results are not listed. No stated cut-off is given here; in the data, active means T/C of 150% or more; inactive means T/C below 125%.

System: L1210 leukemia ip in BDF1 mice, survival T/C
Assay: NCI In Vivo Anticancer Drug Screen. Data for tumor model L1210 Leukemia (intraperitoneal) in B6D2F1 (BDF1) mice
Conditions: endpoint: mean survival time, higher = longer survival
In short: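 Value reflects the ratio of survival in compound-treated mice to survival in vehicle-treated controls, with both groups carrying the same transplanted tumor.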

[1] = dose: 75.0 mg/kg/injection, schedule: Q01DX001 (ip), vehicle: saline
[2] = dose: 100.0 mg/kg/injection, schedule: Q04DX003 (ip), vehicle: Klucel (hydroxypropylcellulose) (HPC)
[3] = dose: 200.0 mg/kg/injection, schedule: Q04DX003 (ip), vehicle: Klucel (hydroxypropylcellulose) (HPC)
[4] = dose: 100.0 mg/kg/injection, schedule: Q04DX002 (ip), vehicle: Klucel (hydroxypropylcellulose) (HPC)
[5] = dose: 200.0 mg/kg/injection, schedule: Q04DX002 (ip), vehicle: Klucel (hydroxypropylcellulose) (HPC)
[6] = dose: 400.0 mg/kg/injection, schedule: Q04DX002 (ip), vehicle: Klucel (hydroxypropylcellulose) (HPC)

Measured: T/C

COc1cc2ccc(/C(C)=N/OC(C)=O)cc2cc1OC
inactive: dose: 100.0 mg/kg/injection, schedule: Q04DX003 (ip), vehicle: saline with Tween-80 100 % of control | dose: 200.0 mg/kg/injection, schedule: Q04DX003 (ip), vehicle: saline with Tween-80 100 % of control | dose: 400.0 mg/kg/injection, schedule: Q04DX003 (ip), vehicle: saline with Tween-80 106 % of control

Cc1nc(C(=O)NN)co1
inactive: dose: 5.0 mg/kg/injection, schedule: Q01DX001 (ip), vehicle: saline 106 % of control | dose: 10.0 mg/kg/injection, schedule: Q01DX001 (ip), vehicle: saline 110 % of control | dose: 20.0 mg/kg/injection, schedule: Q01DX001 (ip), vehicle: saline 101 % of control | dose: 40.0 mg/kg/injection, schedule: Q01DX001 (ip), vehicle: saline 101 % of control | dose: 80.0 mg/kg/injection, schedule: Q01DX001 (ip), vehicle: saline 104 % of control | dose: 100.0 mg/kg/injection, schedule: Q01DX001 (ip), vehicle: saline 98 % of control

CCOC(=O)C(=N\Nc1ccc(C)cc1C)/C(C)=N\NC(N)=S
inactive: [1] 105 % of control

CCCCC(=O)OC1CC2CCC1(C)C2(C)C (stereo not given)
inactive: dose: 100.0 mg/kg/injection, schedule: Q01DX009 (ip), vehicle: Klucel (hydroxypropylcellulose) (HPC) 102 % of control | [2] 96 % of control | dose: 200.0 mg/kg/injection, schedule: Q01DX009 (ip), vehicle: Klucel (hydroxypropylcellulose) (HPC) 102 % of control | [3] 96 % of control | dose: 400.0 mg/kg/injection, schedule: Q01DX009 (ip), vehicle: Klucel (hydroxypropylcellulose) (HPC) 104 % of control | dose: 400.0 mg/kg/injection, schedule: Q04DX003 (ip), vehicle: Klucel (hydroxypropylcellulose) (HPC) 100 % of control

CCOC(=O)CNc1cccc(C(F)(F)F)c1
inactive: dose: 100.0 mg/kg/injection, schedule: Q01DX009 (ip), vehicle: carboxymethylcellulose (CMC) 98 % of control | [4] 100 % of control and 105 % of control | dose: 200.0 mg/kg/injection, schedule: Q01DX009 (ip), vehicle: carboxymethylcellulose (CMC) 93 % of control | [5] 109 % of control and 114 % of control | [6] 98 % of control

COc1ccccc1/C=N\NC(=S)Nc1ccc(F)cc1
inactive: dose: 60.0 mg/kg/injection, schedule: Q01DX Z (oral), vehicle: methylcellulose (MC) 106 % of control | dose: 120.0 mg/kg/injection, schedule: Q01DX Z (oral), vehicle: methylcellulose (MC) 90 % of control | dose: 240.0 mg/kg/injection, schedule: Q01DX Z (ip), vehicle: methylcellulose (MC) 92 % of control | dose: 240.0 mg/kg/injection, schedule: Q01DX Z (oral), vehicle: methylcellulose (MC) 96 % of control | dose: 480.0 mg/kg/injection, schedule: Q01DX Z (ip), vehicle: methylcellulose (MC) 91 % of control | dose: 480.0 mg/kg/injection, schedule: Q01DX Z (oral), vehicle: methylcellulose (MC) 93 % of control

Cc1ccc([P+](Cc2ccc(Cl)cc2Cl)(c2ccc(C)cc2)c2ccc(C)cc2)cc1
inactive: dose: 6.25 mg/kg/injection, schedule: Q04DX003 (ip), vehicle: Klucel (hydroxypropylcellulose) (HPC) 103 % of control | dose: 12.5 mg/kg/injection, schedule: Q04DX003 (ip), vehicle: Klucel (hydroxypropylcellulose) (HPC) 92 % of control

Cc1ccc(C(=O)OCc2ccccc2CN2CCOCC2)cc1
inactive: [4] 100 % of control | [5] 103 % of control | [6] 92 % of control

CCC(C)C(CCN1CCCCC1)(CNC(=O)CN(CC)CC)c1cccc2ccccc12 (stereo not given)
inactive: dose: 100.0 mg/kg/injection, schedule: Q04DX003 (ip), vehicle: saline 103 % of control | dose: 200.0 mg/kg/injection, schedule: Q04DX003 (ip), vehicle: saline 103 % of control

CC(C)(c1ccccc1)C(C(=O)O)C(=O)O
inactive: [1] 98 % of control | dose: 150.0 mg/kg/injection, schedule: Q01DX001 (ip), vehicle: saline 98 % of control | dose: 300.0 mg/kg/injection, schedule: Q01DX001 (ip), vehicle: saline 102 % of control

C/C(=N/NC(=O)CC#N)c1ccccc1
inactive: dose: 100.0 mg/kg/injection, schedule: Q04DX002 (ip), vehicle: saline with Tween-80 101 % of control | dose: 200.0 mg/kg/injection, schedule: Q04DX002 (ip), vehicle: saline with Tween-80 104 % of control | dose: 400.0 mg/kg/injection, schedule: Q04DX002 (ip), vehicle: saline with Tween-80 95 % of control

CCOC(=O)c1cc([N+](=O)[O-])ccc1N=Nc1cc(OC)c(N)cc1OC
inactive: dose: 100.0 mg/kg/injection, schedule: Q01DX001 (ip), vehicle: other 111 % of control | dose: 200.0 mg/kg/injection, schedule: Q01DX001 (ip), vehicle: other 103 % of control | dose: 400.0 mg/kg/injection, schedule: Q01DX001 (ip), vehicle: other 103 % of control

CC(C)(C)N1CC(C(O)c2ccccc2)C1c1ccccc1 (stereo not given)
inactive: [2] 98 % of control | [3] 95 % of control

FC(F)(F)c1ccc2c(c1)N(CCCN1CCN(CCN3CCCCC3)CC1)c1ccccc1S2
inactive: dose: 12.5 mg/kg/injection, schedule: Q01DX009 (ip), vehicle: saline 93 % of control | dose: 12.5 mg/kg/injection, schedule: Q04DX003 (ip), vehicle: saline 94 % of control | dose: 25.0 mg/kg/injection, schedule: Q01DX009 (ip), vehicle: saline 86 % of control | dose: 25.0 mg/kg/injection, schedule: Q04DX003 (ip), vehicle: saline 96 % of control | dose: 50.0 mg/kg/injection, schedule: Q04DX003 (ip), vehicle: saline 92 % of control

CCOC(=O)C(c1ccccc1)c1ccccc1
inactive: dose: 100.0 mg/kg/injection, schedule: Q01DX009 (ip), vehicle: other 102 % of control | dose: 200.0 mg/kg/injection, schedule: Q01DX009 (ip), vehicle: other 94 % of control | dose: 400.0 mg/kg/injection, schedule: Q01DX009 (ip), vehicle: other 93 % of control

N#C/C(=C\c1cccn1Cc1ccc2c(c1)OCO2)C(N)=O
inactive: dose: 25.0 mg/kg/injection, schedule: Q04DX002 (ip), vehicle: Klucel (hydroxypropylcellulose) (HPC) 101 % of control | dose: 50.0 mg/kg/injection, schedule: Q04DX002 (ip), vehicle: Klucel (hydroxypropylcellulose) (HPC) 101 % of control | [4] 96 % of control

O=C(Nc1ccc(C(=O)Nc2cccc(C3=NCCN3)c2)cc1)c1ccc(C2=NCCN2)cc1
inactive: dose: 1.88 mg/kg/injection, schedule: Q01DX Z (ip), vehicle: saline 89 % of control | dose: 3.75 mg/kg/injection, schedule: Q01DX Z (ip), vehicle: saline 104 % of control | dose: 7.5 mg/kg/injection, schedule: Q01DX Z (ip), vehicle: saline 102 % of control | dose: 15.0 mg/kg/injection, schedule: Q01DX Z (ip), vehicle: saline 124 % of control

NC(=O)CC(NC(=O)CCl)C(=O)O (stereo not given)
inactive: dose: 100.0 mg/kg/injection, schedule: Q01DX009 (ip), vehicle: saline with Tween-80 104 % of control | dose: 200.0 mg/kg/injection, schedule: Q01DX009 (ip), vehicle: saline with Tween-80 87 % of control | dose: 400.0 mg/kg/injection, schedule: Q01DX009 (ip), vehicle: saline with Tween-80 86 % of control

NNc1nc2c(N)ncnc2n1C1OC(CO)C(O)C1O (stereo not given)
inactive: dose: 100.0 mg/kg/injection, schedule: Q01DX005 (ip), vehicle: saline 104 % of control | dose: 200.0 mg/kg/injection, schedule: Q01DX005 (ip), vehicle: saline 107 % of control
